Measurements: patent US20250177412A1, “SMALL-MOLECULE INHIBITORS TARGETING THE BOB1/OCT1 INTERFACE” (NANTES UNIVERSITE, priority 2022, published 2025)

What was measured:
[1] = biological target: OCT1 (endogenous) + BOB1 (transfected) (Homo sapiens) (UniProt P14859+Q16633); assay: cell_activity; settings: BOB1 stimulation over endogenous OCT1 alone, HEK293 luciferase; attenuated by compounds 004, 005, 006 at 10 uM
[2] = tested on: BOB1/OCT1-mediated transcription; assay: Luciferase reporter assay (transient transfection, 6xPORE-luc); type: cell-based, human; settings: 10 μM in the culture medium
Experimental: FIGS. 1A-C are a combination of graphs showing that compound 005 inhibits BOB1/OCT1-mediated transcription in vitro. HEC293Ea1 cells, known to express endogenous OCT1, were co-transfected with […] reporter, pEV-OBF1 (BOB1) effector, and pCMV-β-gal calibrator plasmids. Luciferase and β-galactosidase activities were measured 48 hours after transfection. The 100% luciferase activity was set as activity in presence of vehicle (10 μM DMSO). […] All experiments are performed at least in triplicates. Bars indicate the mean±SEM. * P<0.05, ** P<0.01, *** P<0.001, **** P<0.0001.
The HEK293E1a cells were seeded at density 1.2×10^4 per well on 48-well plate in DMEM medium containing 10% fetal calf serum. After 24 hours cells were transfected with plasmid mix (300 ng/well) containing specified amounts of the p6×PORE-luc reporter, pEV-OBF1 and pCG-Oct1 effector, pBluescript II KS+ carrier, and pCMV-βgal (for standardization) as previously described. The transfections were carried out in three biological replicates, using Polyethylenimine (PEI 25K, Polysciences Inc.) at the ratio 2:1 to DNA. After 48 hours, cells were washed with PBS, lysed, and measured for luciferase activity, using the Bright-Glo luciferase assay system (Promega), and for β-galactosidase activity in a standard assay.
BOB1 has been described as a coactivator acting in cooperation with the POU-domain proteins OCT1 and OCT2 bound to distinct DNA-motifs either in monomeric or dimeric configurations. […] As an initial functional assay, we examined the ability of the compounds according to the present invention to affect BOB1-OCT1-PORE-mediated transcriptional activation in transient transfection luciferase assay. To this end, we made use of previously generated 6×PORE-luc and reporter plasmid, in which hexamers of the PORE were cloned upstream of the thymidine kinase (tk) minimal promoter and luciferase gene. […] Furthermore, the addition of a plasmid expressing exogenous OCT1 exerted an inhibitory effect on both basal and BOB1-mediated transcription (data not shown). This observation is likely due to the fact that HEK293 cells, like all other mammalian cell types, express OCT1, and further addition of exogenous OCT1 in these cells shifts the BOB1/OCT1 equilibrium out of optimal range, resulting in squelching effect, and in our experimental setup, in about 3-fold stimulation, as compared to that by endogenous OCT1 alone (FIG. 1A). […] Compound 005 was selected for further detailed investigation.

Sequence of OCT1 (endogenous) + BOB1 (transfected) (Homo sapiens) (P14859 other isoform, or with tags, fused parts or gaps, chain 1 of 2): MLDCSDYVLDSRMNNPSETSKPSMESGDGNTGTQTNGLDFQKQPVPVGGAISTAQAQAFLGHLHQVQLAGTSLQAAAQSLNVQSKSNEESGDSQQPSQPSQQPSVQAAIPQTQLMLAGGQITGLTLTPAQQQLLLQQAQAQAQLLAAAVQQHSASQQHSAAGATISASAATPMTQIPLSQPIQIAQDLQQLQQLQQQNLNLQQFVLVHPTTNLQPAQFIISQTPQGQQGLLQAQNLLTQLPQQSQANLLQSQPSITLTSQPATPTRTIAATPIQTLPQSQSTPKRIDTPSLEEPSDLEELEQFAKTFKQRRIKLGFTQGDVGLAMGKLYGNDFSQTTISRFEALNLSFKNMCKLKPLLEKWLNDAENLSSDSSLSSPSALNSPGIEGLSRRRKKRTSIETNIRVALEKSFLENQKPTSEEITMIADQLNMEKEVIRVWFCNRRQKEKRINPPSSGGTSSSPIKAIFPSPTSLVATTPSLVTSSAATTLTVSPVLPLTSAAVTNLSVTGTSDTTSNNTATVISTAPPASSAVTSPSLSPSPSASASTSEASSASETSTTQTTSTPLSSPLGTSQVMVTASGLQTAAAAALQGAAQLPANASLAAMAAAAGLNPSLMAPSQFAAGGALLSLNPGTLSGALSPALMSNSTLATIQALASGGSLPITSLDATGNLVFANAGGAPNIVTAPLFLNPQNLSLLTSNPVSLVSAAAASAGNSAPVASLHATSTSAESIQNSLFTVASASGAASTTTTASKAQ
Sequence of OCT1 (endogenous) + BOB1 (transfected) (Homo sapiens) (Q16633 whole entry, chain 2 of 2): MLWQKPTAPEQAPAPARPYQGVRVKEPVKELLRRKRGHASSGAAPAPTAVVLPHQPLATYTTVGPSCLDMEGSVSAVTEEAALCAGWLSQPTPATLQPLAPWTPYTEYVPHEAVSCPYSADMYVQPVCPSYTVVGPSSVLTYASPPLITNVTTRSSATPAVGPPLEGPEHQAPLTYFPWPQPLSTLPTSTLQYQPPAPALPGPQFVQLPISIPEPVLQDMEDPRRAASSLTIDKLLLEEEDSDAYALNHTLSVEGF

Row | BOB1/OCT1-driven transcription (relative luciferase activity) [2] | Compound | activity [1]
1 | – | 6xPORE-tk-luc reporter | 3 fold
2 | significantly attenuated | O=C(Nc1ccc(Br)c(C(F)(F)F)c1)C1CCCCN1c1nc(NCc2cccc(F)c2)nc(N(CCO)CCO)n1 (stereo not drawn) [compound 004, 1-(4-(bis(2-hydroxyethyl)amino)-6-((3-fluorobenzyl)amino)-1,3,5-triazin-2-yl)-N-(4-bromo-3-(trifluoromethyl)phenyl)piperidine-2-carboxamide] | –
3 | significantly attenuated | O=C(O)CCNc1nc(NCCCc2ccc(F)cc2)nc(N2CCCC(C(=O)N3CCC(Cc4ccccc4)CC3)C2)n1 (stereo not drawn) [compound 006, 3-((4-(3-(4-benzylpiperidine-1-carbonyl)piperidin-1-yl)-6-((3-(4-fluorophenyl)propyl)amino)-1,3,5-triazin-2-yl)amino)propanoic acid] | –
